Earlier results on three compounds are cited in patent US10729634B2, “Sex hormone-binding globulin for use as a medicament” (FUNDACIÓ HOSPITAL UNIVERSITARI VALL D'HEBRON—INSTITUT DE …, priority 2013, dated 2020).

For series [1] the following is noted: cited from earlier work.
For series [2], the system named is HepG2 hepatoblastoma cells. The following applies: positive control, 3 μM; cited from earlier work.

As to `C[C@H]1CNCCc2ccc(Cl)cc21` [Lorcaserin], in series [1] (over a year), the “average weight loss greater than placebo” value is listed as 3.1 kg and the “average weight loss greater than placebo, of body mass” value is reported as 3%.

Take `CCCCCCCCCCC[C@@H](C[C@@H]1OC(=O)[C@H]1CCCCCC)OC(=O)[C@H](CC(C)C)NC=O` [orlistat]: the side effects entry in series [1] (in vivo) was “associated with gastrointestinal side effects”.

In the case of `CC(C)NCC(O)c1ccc(O)c(O)c1` (stereo not shown) [Isoproterenol], the lipolysis result in series [2] is “induces lipolysis”.
